Source: patent US5550110A, “Endothelin Antagonists II” (Warner-Lambert Company, priority 1994, dated 1996)
Peptide text beside a SMILES is read from it.

Key:
[1] = target: ETB (rabbit pulmonary artery) (Oryctolagus cuniculus, UniProt Q9N0W7)
Source text: (§1) In Vitro Antagonism of ET-1 Stimulated Vasoconstriction in the Rabbit Femoral Artery (ETA) and Sarafotoxin 6c Stimulated Vasoconstriction in the Rabbit Pulmonary Artery (ETB)
(§2) Male New Zealand rabbits were killed by cervical dislocation and exsanguination. Femoral and pulmonary arteries were isolated, cleaned of connective tissue, and cut into 4-mm rings. The endothelium was denuded by placing the rings over hypodermic tubing (32 guage for femoral rings and 28 guage for pulmonary rings, Small Parts, Inc, Miami, Fla.) and gently rolling them. Denuded rings were mounted in 20 mL organ baths containing Krebs-bicarbonate buffer (composition in mM: NaCl, 118.2; NaHCO3, 24.8; KCl, 4.6; MgSO4 7.H2 O, 1.2; KH2 PO4, 1.2; CaCl2.2H2 O; Ca--Na2 EDTA, 0.026; dextrose, 10.0), that was maintained at 37° C. and gassed continuously with 5% CO2 in oxygen (pH 7.4). Resting tension was adjusted to 3.0 g for femoral and 4.0 g pulmonary arteries; the rings were left for 90 minutes to equilibrate.

[2] = system: ETA (rabbit femoral artery); conditions: ET-1 as agonist, endothelium-denuded rings
Source text: as §1, §2

[3] = system: CaCO-2 cells (human colon adenocarcinoma cell line); format: in vitro ADME
Protocol: For experiments, the cells were counted, then diluted to 2.5×10^5 cells/mL for planting (400 μL per well) onto Snapwell culture membranes with 2.5 mL media in the lower chamber. Media in the […] was changed every 2 to 3 days. Cells used for this series of experiments were between passage 38 and 91. 2-[N-Morpholino]ethanesulfonic acid (MES)+25 mM glucose was used as incubation buffer for all the experiments and all incubation solutions were prepared to an osmotic pressure of 280 to 300 milliosmoles. The concentration of the endothelin antagonist being studied (for all experiments) was 100 μM and another endothelin antagonist with similar HPLC characteristics (retention time 2-3 minutes from the ET antagonist being studied, and similar chemical characteristics) was used at a concentration of 25 μM as an internal standard to compensate for any injection error. Prior to the start of the experiment, the transepithelial electrical resistance (TEER) was measured for each Snapwell (in media) at three points of the membrane. […] The membranes were washed by swirling in 0.9% normal saline and mounted in the pretreated diffusion chambers [0.1 mg/mL human serum albumin for 1 to 2 hours at 37° C. with O2 bubbling followed by air drying at 37° C. overnight, then with 4.5 to 5.0 mL dosing solution (MES+glucose+^14 C-PEG-4000 (5000 dpm/50 μL)+drug) for 5 minutes and 4.5 to 5.0 mL MES+glucose rinse just before the experiment.] The apical (donor) side was filled with 4.5 to 5.0 mL dosing solution, the basolateral (receiver) side with MES+glucose. Samples were removed from the donor and receiver compartments over the course of the experiment and analyzed for ^14 C-PEG 4000 (cell membrane integrity) and endothelin content.

[4] = target: T1, endothelin receptor (ETB), rat cerebellar membranes (Rattus norvegicus, UniProt P21451); assay: Endothelin Receptor Binding Assay-B (ERBA-B), [125I]-ET-1 binding in rat cerebellar membranes; conditions: [125I]-ET-1 25 pM, read-out: ERRA-B IC50
T1 construct: thaw one aliquot of frozen rat cerebellar membranes (2 mg protein in 0.5 mL); from tissue; host or cells: rat cerebellum (membranes)
T1 sequence (P21451 27-442): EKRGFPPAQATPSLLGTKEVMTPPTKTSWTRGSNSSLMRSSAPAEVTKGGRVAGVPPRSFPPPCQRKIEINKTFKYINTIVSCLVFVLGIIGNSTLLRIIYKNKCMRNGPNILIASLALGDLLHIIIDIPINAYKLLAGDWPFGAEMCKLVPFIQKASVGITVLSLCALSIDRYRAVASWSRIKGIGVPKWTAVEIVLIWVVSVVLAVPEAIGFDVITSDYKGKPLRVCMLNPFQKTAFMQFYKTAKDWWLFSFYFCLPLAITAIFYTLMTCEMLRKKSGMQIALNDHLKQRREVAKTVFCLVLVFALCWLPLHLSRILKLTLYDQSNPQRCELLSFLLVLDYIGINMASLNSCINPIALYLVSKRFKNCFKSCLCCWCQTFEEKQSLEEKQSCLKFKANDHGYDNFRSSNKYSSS
Protocol: Endothelin Receptor Binding Assay-B (ERBA-B) [^125 I]-ET-1 Binding in Rat Cerebellar Membranes
The tissue is made up of 20 mM tris(hydroxymethyl)aminomethane hydrochloride (Trizma) buffer, 2 mM ethylenediaminetetra acetate, 100 μM phenylmethylsulfonyl fluoride.
First, thaw one aliquot of frozen rat cerebellar membranes (2 mg protein in 0.5 mL). Next, add 0.5 mL membrane aliquot to 4.5 mL cold tissue buffer, polytron at 7,500 revolutions per minute for 10 seconds. Finally, dilute tissue suspension 1/100 (0.1 mL suspension+9.9 mL tissue buffer), polytron again, and place ice.
Medium 199 with Hank's salts plus 25 mM Hepes+1 mg/mL bovine serum albumin.
Amersham [^125 I]-ET-1 (aliquots of 2×10^6 cpm per […] aliquot of [^125 I]-ET-1 with 5.2 mL dilution buffer, place on ice until use (final concentration will be 20,000 cpm per tube, or 25 pM).
Add 50 μL each of cold [^125 ]-ET-1 and competing ligand to tubes on ice. Mix in 150 μL of tissue to each tube, vortex briefly, then tap to force all liquids to bottom (total assay volume=250 μL). Then place the tubes in a 37° C. water bath for 2 hours.
Add 2.5 mL cold wash buffer (50 mM Trizma buffer) to each tube, filter, and then wash tube with additional 2.5 mL wash buffer and add to filter. Finally, wash filters with an additional 2.5 mL of cold wash buffer.
Count filters for radioactivity in gamma counter.

Chain of ETB (rabbit pulmonary artery) (Q9N0W7 27-441): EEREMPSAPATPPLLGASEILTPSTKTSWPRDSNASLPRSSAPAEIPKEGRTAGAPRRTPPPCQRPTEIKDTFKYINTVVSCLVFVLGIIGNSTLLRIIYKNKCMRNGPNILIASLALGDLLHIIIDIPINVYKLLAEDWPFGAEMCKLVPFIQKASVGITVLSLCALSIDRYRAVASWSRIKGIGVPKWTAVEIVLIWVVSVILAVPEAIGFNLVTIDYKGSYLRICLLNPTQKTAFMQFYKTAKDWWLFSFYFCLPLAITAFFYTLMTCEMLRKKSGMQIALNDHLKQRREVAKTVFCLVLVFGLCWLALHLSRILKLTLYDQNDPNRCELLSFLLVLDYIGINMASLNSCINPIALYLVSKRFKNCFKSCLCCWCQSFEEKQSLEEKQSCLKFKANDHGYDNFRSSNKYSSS

Compound | Kb [1] | pA2 Femoral [2] | absorption in the gut suggested by CaCO-2 values [3] | IC50 [4]
CC[C@H](C)[C@H](NC(=O)[C@H](CC(=O)O)NC(=O)[C@H](CC(C)C)NC(=O)[C@H](NC(C)=O)C1c2ccccc2CCc2ccccc21)C(=O)N[C@H](C(=O)N[C@@H](Cc1c[nH]c2ccccc12)C(=O)O)[C@@H](C)CC [Example 1, Ac-D-Bhg-Leu-Asp-Ile-Ile-Trp] (HELM PEPTIDE1{[ac].[O=C([C@H](N[*:1])C1c2ccccc2CCc2ccccc21)[*:2]].L.D.I.I.W}$$$$V2.0) | 0.0794 µM | 6.8 | 5-10% | 0.019 µM
CC[C@H](C)[C@H](NC(=O)[C@H](CC(=O)O)NC(=O)[C@H](CC(C)C)NC(=O)[C@H](NC(C)=O)C1c2ccccc2CCc2ccccc21)C(=O)N(C)[C@H](C(=O)N[C@@H](Cc1c[nH]c2ccccc12)C(=O)O)[C@@H](C)CC [Example 19, Ac-D-Bhg-Leu-Asp-Ile-N-MeIle-Trp] (HELM PEPTIDE1{[ac].[O=C([C@H](N[*:1])C1c2ccccc2CCc2ccccc21)[*:2]].L.D.I.[meI].W}$$$$V2.0) | 0.251 µM | 7.3 | 5-10% | 0.04 µM
